# In US8258119B2, “Anti-cancer drugs and uses relating thereto for metastatic malignant melanoma and other cancers” (Kasina Laila Innova Pharmaceuticals, priority 2008, dated 2012):
# System: A2058, human malignant melanoma cells
# Assay: MTT cell proliferation assay in A2058 cells
# Format: cell-based
# Settings: A2058, 72 h, three days exposure
# Method: (§1) MTT [3-(4,5-dimethylthiazol-2-yl)-2,5-diphenyltetrazolium bromide] incorporation based cell proliferation assay was performed using standard procedure with some modifications (38). The cytotoxic efficacy of the test compounds were evaluated in human malignant melanoma A2058 cells by MTT cell proliferation assay kit (Roche Applied Sciences, Germany). The assay was carried out according to the instruction provided by the vendor. Briefly, equal numbers of cells was plated in 96-well flat-bottomed plates in 100 μl of medium and were exposed to either DTIC or its derivative compounds at various concentrations up to 150 μg/ml for a period of three days. Vehicle control culture wells received only a maximum of 0.5% DMSO. Thereafter, 0.5 mg/ml of MTT reagent was added to each well and the microplate was incubated further for 4 h at 37° C. in presence of 5% CO2. Finally, the cells were solubilized by adding solubilizing solution and allowed to incubate at 37° C. overnight. After complete solubilization of the formazan crystals the absorbance was read at 540 nm in a microplate reader (BioRad, USA). The results (mean OD±SD) obtained from quadruplicate wells were used in calculation to determine the inhibition of cell proliferation (50% inhibitory concentration, IC50) of the test compounds.
row,SMILES,IC50 [µg/mL]
1,"CN(C)/N=N/c1ccsc1C(N)=O [Compound 1, 3-[(dimethylamino)diazenyl]thiophene-2-carboxamide]",78.7
2,"CN(C)/N=N/c1c(Br)csc1C(N)=O [Compound 2, 3-[(dimethylamino)diazenyl]-4-bromothiophene-2-carboxamide]",113
3,"CN(C)/N=N/c1ccsc1C(=O)NCCO [Compound 9, {3-[(dimethylamino)diazenyl] (2-thienyl)}-N-(2-hydroxyethyl)-carboxamide]",214
4,"CNC(=O)c1sccc1/N=N/N(C)C [Compound 10, {3-[(dimethylamino)diazenyl](2-thienyl)}-N-methylcarboxamide]",179

# The next lines start with the values.
row,IC50 [µg/mL],SMILES
1,164,"CN(C)/N=N/c1ccsc1C(=O)NCCN [Compound 11, N-(2-aminoethyl){3-[(dimethylamino)diazenyl](2-thienyl)}-carboxamide]"
2,165,CN(C)/N=N/c1csc(C(N)=O)c1 [Compound 12]
3,48.8,"CN(C)/N=N/c1cscc1C(N)=O [Compound 13, 4-[(dimethylamino)diazenyl]thiophene-3-carboxamide]"
4,147,"Cn1nnc2sc(N)cc2c1=O [Compound 17, 6-amino-3-methylthiopheno[2,3-d]1,2,3-triazin-4-one]"

# System: normal human skin epithelial HS.531.sk cells
# Assay: LDH leakage assay on normal skin cells (tumor selectivity)
# Format: cell-based
# Settings: 120 μg/ml
# Method: From the data obtained from the MTT assay (Table J), compound 1, compound 6 and compound 13 have been selected and their cytotoxicity potential has been further validated in LDH leakage assay. […] Cytotoxicity potential of DTIC and its derivative compounds were evaluated by measuring the leaked lactate dehydrogenase (LDH) into the culture supernatant (LDH Cytotoxicity Detection Roche Applied Sciences, Germany). The leaked LDH is directly proportional to the cell damage done by the cytotoxic compounds. In brief, cells were treated with test compounds at various concentrations and incubated for 48 h. Vehicle control culture wells received only a maximum of 0.5% DMSO. The cell free culture supernatants were mixed with catalyst and dye solution and allowed to incubate for 15 min at room temperature. Finally, the reaction was stopped and the optical density was measured at 492 nm in a microplate reader (BioRad, USA). The results (mean OD±SD) obtained from quadruplicate wells were used in calculation to determine the cytotoxicity potential (50% of inhibitory concentration, IC50) of the test compounds. A plot of loss of cell viability as indicated by the leakage of LDH versus drug concentration is depicted in FIG. 1.
# Next, to check whether the DTIC derivative compounds can selectively kill the melanoma cells without or minimally affecting the normal cells, we assessed the effect of the test compounds on normal human skin epithelial HS.531.sk cells. […] Whereas, 120 μg/ml of DTIC, compound 1, […] caused 5.8%, 4.2%, 2.4%, and 2.4% reduction in normal cell viability, respectively.
row,SMILES,reduction in normal cell viability [%]
1,"CN(C)/N=N/c1ccsc1C(N)=O [Compound 1, 3-[(dimethylamino)diazenyl]thiophene-2-carboxamide]",4.2
2,"CN(C)/N=N/c1cc([N+](=O)[O-])sc1C(N)=O [Compound 3, 3-[(dimethylamino)diazenyl]-5-nitrothiophene-2-carboxamide]",2.4
3,"COc1c(C(N)=O)sc(C(N)=O)c1/N=N/N(C)C [Compound 4, 4-[(dimethylamino)diazenyl]-3-methoxythiophene-2,5-dicarboxamide]",2.4

# System: PARP cleavage in A2058 human melanoma cells
# Assay: PARP cleavage Western immunoblot assay
# Format: cell-based
# Settings: 100 μg/ml, versus DTIC at the same concentration
# Text: Proteolytic cleavage of PARP by caspases is regarded as a hallmark of apoptosis. Caspase-3 cleaves the 113-kDa PARP to generate 89- and 24-kDa polypeptides (39). Next, with an intention to evaluate the comparative apoptotic potential of DTIC and test products compound 1, compound 6 and compound 13, PARP cleavage assay has been performed on A2058 cells. PARP cleavage was estimated by using Western immunoblot assay as described earlier (40). FIG. 3 illustrates comparative efficacy of PARP cleavage by the test compounds at a fixed dose of 100 μg/ml. […] No. 3 treated A2058 cells is 56.6% more than in DTIC treated cells at the same concentration.
row,SMILES,"expression of cleaved subunit of PARP at 89 kDa, more than in DTIC treated cells [%]"
1,"CN(C)/N=N/c1cc([N+](=O)[O-])sc1C(N)=O [Compound 3, 3-[(dimethylamino)diazenyl]-5-nitrothiophene-2-carboxamide]",56.6

# System: MCF-7 human breast tumor cells
# Assay: MTT cell proliferation assay in MCF-7 cells
# Format: cell-based
# Settings: MCF7, read-out: 50% of inhibitory concentration, IC50 MCF-7
# Method: as §1
# (§2) Anti-tumor growth potential of Compound 1 and Compound 6 were evaluated in MCF-7 human breast tumor cells, MIA-PaCa2 human pancreas tumor cells and DU145 human prostate tumor cells by using MTT based cell proliferation studies as described earlier (example 19). The results (mean OD±SD) obtained from quadruplicate wells were used in calculation to determine the inhibition of cell proliferation (50% of inhibitory concentration, IC50) of the test compounds (Table 4).
row,IC50 [µg/mL],SMILES
1,130,"CN(C)/N=N/c1ccsc1C(N)=O [Compound 1, 3-[(dimethylamino)diazenyl]thiophene-2-carboxamide]"

# System: MIA-PaCa2 human pancreas tumor cells
# Assay: MTT cell proliferation assay in MIA-PaCa2 cells
# Format: cell-based
# Settings: MIA PaCa-2, read-out: 50% of inhibitory concentration, IC50 MIA-PaCa2
# Method: as §1, §2
row,IC50 [µg/mL],SMILES
1,168,"CN(C)/N=N/c1ccsc1C(N)=O [Compound 1, 3-[(dimethylamino)diazenyl]thiophene-2-carboxamide]"

# System: DU145 human prostate tumor cells
# Assay: MTT cell proliferation assay in DU145 cells
# Format: cell-based
# Settings: DU-145, read-out: 50% of inhibitory concentration, IC50 DU145
# Method: as §1, §2
row,IC50 [µg/mL],SMILES
1,153,"CN(C)/N=N/c1ccsc1C(N)=O [Compound 1, 3-[(dimethylamino)diazenyl]thiophene-2-carboxamide]"

# System: not given
# Assay: not given
# Settings: not given
row,SMILES,melting point [°C]
1,CN(C)/N=N/c1ccsc1C(=O)[O-].[K+],274 to 280
2,"CN(C)/N=N/c1ccsc1C(N)=O [Compound 1, 3-[(dimethylamino)diazenyl]thiophene-2-carboxamide]",168 to 170
3,"CN(C)/N=N/c1c(Br)csc1C(N)=O [Compound 2, 3-[(dimethylamino)diazenyl]-4-bromothiophene-2-carboxamide]",194 to 196
4,"COc1c(C(N)=O)sc(C(N)=O)c1/N=N/N(C)C [Compound 4, 4-[(dimethylamino)diazenyl]-3-methoxythiophene-2,5-dicarboxamide]",226 to 228
5,"CN(C)/N=N/c1cc(-c2ccccc2)sc1C(N)=O [Compound 5, 3-[(dimethylamino)diazenyl]-5-phenylthiophene-2-carboxamide]",220 to 222
6,"CN(C)/N=N/c1cc([N+](=O)[O-])sc1C(=O)O [Compound 7, 3-[(dimethylamino)diazenyl]-5-nitrothiophene-2-carboxylic acid]",184 to 186
7,"CN(C)/N=N/c1cc(-c2ccccc2)sc1C(=O)O [Compound 8, 3-[(dimethylamino)diazenyl]-5-phenylthiophene-2-carboxylic acid]",162 to 166
8,"CN(C)/N=N/c1ccsc1C(=O)NCCO [Compound 9, {3-[(dimethylamino)diazenyl] (2-thienyl)}-N-(2-hydroxyethyl)-carboxamide]",118 to 122
9,"CNC(=O)c1sccc1/N=N/N(C)C [Compound 10, {3-[(dimethylamino)diazenyl](2-thienyl)}-N-methylcarboxamide]",98 to 102

# The next lines start with the values.
row,melting point [°C],SMILES
1,128 to 130,CN(C)/N=N/c1csc(C(N)=O)c1 [Compound 12]
2,168 to 172,"CN(C)/N=N/c1cscc1C(N)=O [Compound 13, 4-[(dimethylamino)diazenyl]thiophene-3-carboxamide]"
3,190 to 194,"Cn1nnc2sc(N)cc2c1=O [Compound 17, 6-amino-3-methylthiopheno[2,3-d]1,2,3-triazin-4-one]"
4,220 to 222,"Cn1nnc2cc(-c3ccccc3)sc2c1=O [Compound 18, 3-methyl-6-phenylthiopheno[3,2-d]1,2,3-triazin-4-one]"
